Results taken from ChEMBL document CHEMBL1909046, “DrugMatrix in vitro pharmacology data”.

Tests used:
[1] = target: T1, 5-hydroxytryptamine receptor 1A (Rattus norvegicus, UniProt P19327); format: cell membranes, CHO-K1, Membrane; conditions: cho-k1; note: in other assays of this panel Not Active means under 50% inhibition at 10 µM
T1 sequence (P19327 whole entry): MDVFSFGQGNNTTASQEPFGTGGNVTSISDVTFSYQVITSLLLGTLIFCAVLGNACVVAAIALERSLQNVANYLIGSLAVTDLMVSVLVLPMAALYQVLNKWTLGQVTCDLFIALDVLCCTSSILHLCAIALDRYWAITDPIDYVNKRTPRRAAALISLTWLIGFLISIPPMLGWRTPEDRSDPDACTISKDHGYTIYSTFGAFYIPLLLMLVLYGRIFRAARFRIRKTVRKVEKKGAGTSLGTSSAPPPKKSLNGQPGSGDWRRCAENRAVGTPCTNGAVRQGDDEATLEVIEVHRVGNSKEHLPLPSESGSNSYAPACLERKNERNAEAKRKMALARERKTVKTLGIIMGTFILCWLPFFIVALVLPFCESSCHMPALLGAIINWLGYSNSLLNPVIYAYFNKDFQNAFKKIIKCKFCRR

[2] = DRUGMATRIX: Atrial Natriuretic Factor (ANF) radioligand binding (ligand: [125I] ANF (rat)); format: cell membranes, Cavia porcellus, Dunkin-Hartley, Adrenal gland, Membrane; conditions: Not Active = under 50% inhibition at 10 µM
[3] = target: T2, Glucocorticoid receptor (Homo sapiens, UniProt P04150); conditions: hela s3; note: in other assays of this panel Not Active means under 50% inhibition at 10 µM
T2 sequence (P04150 whole entry): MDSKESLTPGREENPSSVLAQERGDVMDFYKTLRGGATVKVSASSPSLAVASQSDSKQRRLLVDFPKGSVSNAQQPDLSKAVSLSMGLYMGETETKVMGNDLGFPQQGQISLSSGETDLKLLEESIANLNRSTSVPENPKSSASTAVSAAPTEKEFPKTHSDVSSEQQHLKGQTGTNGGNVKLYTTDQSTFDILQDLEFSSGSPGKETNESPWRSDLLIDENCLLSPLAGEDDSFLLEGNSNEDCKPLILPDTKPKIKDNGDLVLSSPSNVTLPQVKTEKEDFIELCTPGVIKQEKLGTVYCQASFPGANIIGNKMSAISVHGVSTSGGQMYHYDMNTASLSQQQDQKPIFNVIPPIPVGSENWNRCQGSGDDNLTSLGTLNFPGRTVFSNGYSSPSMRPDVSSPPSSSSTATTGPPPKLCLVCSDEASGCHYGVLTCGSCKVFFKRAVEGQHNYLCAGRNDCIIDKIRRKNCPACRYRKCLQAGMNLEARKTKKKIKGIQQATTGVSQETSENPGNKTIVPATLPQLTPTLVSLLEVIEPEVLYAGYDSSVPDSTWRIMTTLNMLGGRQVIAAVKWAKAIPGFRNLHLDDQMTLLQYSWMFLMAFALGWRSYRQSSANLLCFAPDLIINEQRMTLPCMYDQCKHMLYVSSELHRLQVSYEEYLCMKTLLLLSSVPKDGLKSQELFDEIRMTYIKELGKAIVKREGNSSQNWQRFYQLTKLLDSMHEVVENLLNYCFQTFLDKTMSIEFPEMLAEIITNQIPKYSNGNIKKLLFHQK

[4] = target: Vasopressin V1a receptor (Homo sapiens, UniProt P37288); format: cell membranes, Membrane; conditions: hek293; note: in other assays of this panel Not Active means under 50% inhibition at 10 µM
Sequence of Vasopressin V1a receptor (P37288 whole entry): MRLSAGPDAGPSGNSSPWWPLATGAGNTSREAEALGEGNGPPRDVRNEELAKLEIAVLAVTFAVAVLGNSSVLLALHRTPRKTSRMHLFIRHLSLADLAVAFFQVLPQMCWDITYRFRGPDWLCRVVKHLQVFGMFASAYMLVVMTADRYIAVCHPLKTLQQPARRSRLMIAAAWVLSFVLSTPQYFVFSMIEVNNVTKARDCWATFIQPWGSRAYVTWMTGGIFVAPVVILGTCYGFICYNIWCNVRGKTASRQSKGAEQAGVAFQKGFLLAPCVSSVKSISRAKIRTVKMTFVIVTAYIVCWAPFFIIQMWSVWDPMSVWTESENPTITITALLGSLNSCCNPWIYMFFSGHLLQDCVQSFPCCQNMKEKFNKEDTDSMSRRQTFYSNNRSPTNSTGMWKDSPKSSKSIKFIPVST

[5] = target: Cytochrome P450 2C9 (Homo sapiens, UniProt P11712); conditions: bti-tn-5b1-4; note: in other assays of this panel Not Active means under 50% inhibition at 10 µM
Sequence of Cytochrome P450 2C9 (P11712 whole entry): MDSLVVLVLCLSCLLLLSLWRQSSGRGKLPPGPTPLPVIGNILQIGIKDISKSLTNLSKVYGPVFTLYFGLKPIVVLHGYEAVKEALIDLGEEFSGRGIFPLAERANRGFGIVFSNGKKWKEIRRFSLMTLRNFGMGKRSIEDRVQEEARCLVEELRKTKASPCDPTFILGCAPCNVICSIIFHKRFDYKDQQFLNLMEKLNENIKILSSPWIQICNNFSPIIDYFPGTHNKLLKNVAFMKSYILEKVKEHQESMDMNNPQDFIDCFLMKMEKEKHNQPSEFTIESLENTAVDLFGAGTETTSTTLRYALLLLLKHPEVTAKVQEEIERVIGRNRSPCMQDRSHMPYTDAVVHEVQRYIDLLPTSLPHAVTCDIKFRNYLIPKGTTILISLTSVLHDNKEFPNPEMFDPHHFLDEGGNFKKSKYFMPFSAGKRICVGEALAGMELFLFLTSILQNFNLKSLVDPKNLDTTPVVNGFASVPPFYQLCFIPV

[6] = target: T3, Alpha-1B adrenergic receptor (Rattus norvegicus, UniProt P15823); test: DRUGMATRIX: Alpha-1B adrenergic receptor radioligand binding (ligand: prazosin); format: cell membranes, Wistar, Liver, Membrane; conditions: Not Active = under 50% inhibition at 10 µM
T3 sequence (P15823 whole entry): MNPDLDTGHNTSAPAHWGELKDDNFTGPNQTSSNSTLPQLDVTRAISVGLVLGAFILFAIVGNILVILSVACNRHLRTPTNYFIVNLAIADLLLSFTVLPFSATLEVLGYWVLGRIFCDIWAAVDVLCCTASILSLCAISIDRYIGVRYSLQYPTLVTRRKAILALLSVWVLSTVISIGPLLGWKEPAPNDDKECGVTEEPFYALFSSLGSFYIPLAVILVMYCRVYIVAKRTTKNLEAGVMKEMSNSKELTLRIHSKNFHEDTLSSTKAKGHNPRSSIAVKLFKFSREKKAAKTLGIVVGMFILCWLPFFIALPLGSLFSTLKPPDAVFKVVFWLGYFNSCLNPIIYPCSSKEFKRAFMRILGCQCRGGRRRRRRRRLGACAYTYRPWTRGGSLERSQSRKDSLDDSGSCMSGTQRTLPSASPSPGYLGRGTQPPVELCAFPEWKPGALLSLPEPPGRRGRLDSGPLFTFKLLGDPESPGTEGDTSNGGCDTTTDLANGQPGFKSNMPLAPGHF

[7] = target: T4, Substance-K receptor (Homo sapiens, UniProt P21452); format: cell membranes, CHO, Membrane; conditions: cho; note: in other assays of this panel Not Active means under 50% inhibition at 10 µM
T4 sequence (P21452 whole entry): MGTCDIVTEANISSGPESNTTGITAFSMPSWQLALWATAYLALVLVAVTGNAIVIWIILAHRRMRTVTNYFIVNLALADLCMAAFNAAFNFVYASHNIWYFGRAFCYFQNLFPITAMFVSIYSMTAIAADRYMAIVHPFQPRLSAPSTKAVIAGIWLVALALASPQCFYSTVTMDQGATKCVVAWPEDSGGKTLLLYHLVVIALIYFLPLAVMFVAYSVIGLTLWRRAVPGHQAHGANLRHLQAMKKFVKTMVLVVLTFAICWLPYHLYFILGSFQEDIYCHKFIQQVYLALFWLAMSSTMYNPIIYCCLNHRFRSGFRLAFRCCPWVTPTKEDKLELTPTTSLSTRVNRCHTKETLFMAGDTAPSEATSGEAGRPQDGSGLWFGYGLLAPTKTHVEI

CNC(=C[N+](=O)[O-])NCCSCc1csc(CN(C)C)n1 [NIZATIDINE]
Not Active: IC50 [1] | IC50 [2] | Ki [2] | IC50 [3] | IC50 [4] | IC50 [5] | Ki [5] | IC50 [6] | IC50 [7]

C[C@]12C/C(=C/O)C(=O)C[C@@H]1CC[C@@H]1[C@@H]2CC[C@@]2(C)[C@H]1CC[C@]2(C)O [OXYMETHOLONE]
Not Active: IC50 [1] | IC50 [2] | Ki [2] | IC50 [3] | IC50 [4] | IC50 [5] | Ki [5] | IC50 [6] | IC50 [7]

CCCCC1C(=O)N(c2ccccc2)N(c2ccccc2)C1=O [PHENYLBUTAZONE]
Not Active: IC50 [1] | IC50 [2] | Ki [2] | IC50 [3] | IC50 [4] | IC50 [5] | Ki [5] | IC50 [6] | IC50 [7]

Cc1cccc(Nc2cc(Cl)nc(SCC(=O)O)n2)c1C [PIRINIXIC ACID]
Not Active: IC50 [1] | IC50 [2] | Ki [2] | IC50 [3] | IC50 [4] | IC50 [5] | Ki [5] | IC50 [6] | IC50 [7]

CC[C@H](C)C(=O)O[C@H]1C[C@H](O)C=C2C=C[C@H](C)[C@H](CC[C@@H](O)C[C@@H](O)CC(=O)O)[C@H]21 [PRAVASTATIN]
Not Active: IC50 [1] | IC50 [2] | Ki [2] | IC50 [3] | IC50 [4] | IC50 [5] | Ki [5] | IC50 [6] | IC50 [7]

CC(C)(Sc1cc(C(C)(C)C)c(O)c(C(C)(C)C)c1)Sc1cc(C(C)(C)C)c(O)c(C(C)(C)C)c1 [PROBUCOL]
Not Active: IC50 [1] | IC50 [2] | Ki [2] | IC50 [3] | IC50 [4] | IC50 [5] | Ki [5] | IC50 [6] | IC50 [7]

COBALT(II) ACETYLACETONATE
Not Active: IC50 [1] | Ki [1] | IC50 [2] | Ki [2] | IC50 [3] | Ki [3] | IC50 [4] | Ki [4] | IC50 [5] | Ki [5] | IC50 [6] | Ki [6] | IC50 [7] | Ki [7]

INSULIN HUMAN
Not Active: IC50 [1] | Ki [1] | IC50 [2] | Ki [2] | IC50 [3] | Ki [3] | IC50 [4] | Ki [4] | IC50 [5] | Ki [5] | IC50 [6] | Ki [6] | IC50 [7] | Ki [7]

POLYVINYL ALCOHOL
Not Active: IC50 [1] | Ki [1] | IC50 [2] | Ki [2] | IC50 [3] | Ki [3] | IC50 [4] | Ki [4] | IC50 [5] | Ki [5] | IC50 [6] | Ki [6] | IC50 [7] | Ki [7]
